Molecules are shown by their SMILES.

In patent US20260200946A1, “KRAS(G12V) INHIBITORS” (Ranok Therapeutics (Hangzhou) Co. Ltd., priority 2022, published 2026) one finds EC50 and IC50 data, which are given here for 16 compounds.

The first assay has as its system NCIH727 cells. The assay is described as follows: Cancer cell line proliferation (CellTiter-Glo), NCI-H727. As to conditions: Homo sapiens, 72 h, NCIH727 lung carcinoid, heterozygous G12V. Format: cell-based. The procedure, abridged: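 NCI-H727 cells (1,000/well) were grown 72 h at 37 °C/5% CO2, then exposed to compound at various concentrations (0.5% DMSO final) for a further 72 h. Viability was read by CellTiter-Glo luminescence, and IC50 values were calculated from the dose-response.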
In the case of `C#Cc1c(F)ccc2cc(O)cc(-c3ncc4c(N5CC6CCC(C5)N6C(=O)CC#N)nc(OCC5(CN6CCC(F)CC6)CC5)nc4c3F)c12` [Example 2], the EC50 (commonly the concentration at which the effect is half-maximal) fell in the range of 0.1 to 1 µM.
Turning to `C#Cc1c(F)ccc2cc(O)cc(-c3ncc4c(N5CC6CCC(C5)N6C(=O)CCC#N)nc(OCC5(CN6CCC(F)CC6)CC5)nc4c3F)c12` [Example 3], the EC50 is over 1 µM.
The same measure, in the same setting: as for `C#Cc1c(F)ccc2cc(O)cc(-c3ncc4c(N5CC6CCC(C5)N6C(=O)CC(C)(C)C)nc(OCC5(CN6CCC(F)CC6)CC5)nc4c3F)c12` [Example 5], the figure is over 1 µM.
`C#Cc1c(F)ccc2cc(O)cc(-c3ncc4c(N5CC6CCC(C5)N6C(=O)NC(C)(C)C)nc(OCC5(CN6CCC(F)CC6)CC5)nc4c3F)c12` [Example 6]: the EC50 lay within 0.1 to 1 µM.
In turn, `C#Cc1c(F)ccc2cc(O)cc(-c3ncc4c(N5CC6CCC(C5)N6C(=O)NC(C)C)nc(OCC5(CN6CCC(F)CC6)CC5)nc4c3F)c12` [Example 7] returned an EC50 of over 1 µM.
`C#Cc1c(F)ccc2cc(O)cc(-c3ncc4c(N5CC6CCC(C5)N6C(=O)N(C)C)nc(OCC5(CN6CCC(F)CC6)CC5)nc4c3F)c12` [Example 8] gave an EC50 of over 1 µM.
On to `C#Cc1c(F)ccc2cc(O)cc(-c3ncc4c(N5CC6CCC(C5)N6C(=O)NC5CCOC5)nc(OCC5(CN6CCC(F)CC6)CC5)nc4c3F)c12` (stereo not drawn) [Example 9], for which the EC50 was over 1 µM.
Compound `C#Cc1c(F)ccc2cc(O)cc(-c3ncc4c(N5CC6CCC(C5)N6C(=O)Nc5ccn[nH]5)nc(OCC5(CN6CCC(F)CC6)CC5)nc4c3F)c12` [Example 10] showed an EC50 of over 1 µM.
Consider `C#Cc1c(F)ccc2cc(O)cc(-c3ncc4c(N5CC6CCC(C5)N6C(=O)OCC)nc(OCC5(CN6CCC(F)CC6)CC5)nc4c3F)c12` [Example 11], for which the EC50 lay in the range of 0.1 to 1 µM.
Still for that read-out and setting: under `C#Cc1c(F)ccc2cc(O)cc(-c3ncc4c(N5CC6CCC(C5)N6S(=O)(=O)CC(C)C)nc(OCC5(CN6CCC(F)CC6)CC5)nc4c3F)c12` [Example 14] stands over 1 µM.
In the case of `C#Cc1c(F)ccc2cc(O)cc(-c3ncc4c(N5CC6CCC(C5)N6C(=O)C(O)O)nc(OCC5(CN6CCC(F)CC6)CC5)nc4c3F)c12` [Example 15], the EC50 was over 1 µM.
Same read-out and setting: as for `C#Cc1c(F)ccc2cc(O)cc(-c3ncc4c(N5CC6CCC(C5)N6C(=O)OCC(C)C)nc(OCC5(CN6CCC(F)CC6)CC5)nc4c3F)c12` [Example 16], the figure is over 1 µM.
In turn, `C#Cc1c(F)ccc2cc(O)cc(-c3ncc4c(N5CC6CCC(C5)N6C(=O)NC(=O)C(C)(C)C)nc(OCC5(CN6CCC(F)CC6)CC5)nc4c3F)c12` [Example 17] displayed an EC50 of over 1 µM.
`C#Cc1c(F)ccc2cc(O)cc(-c3ncc4c(N5CC6CCC(C5)N6C(=O)N5CCC5)nc(OCC5(CN6CCC(F)CC6)CC5)nc4c3F)c12` [Example 18] registered an EC50 of over 1 µM.
As for `C#Cc1c(F)ccc2cc(O)cc(-c3nc(OC)c4c(N5CC6CCC(C5)N6C(=O)NC(C)(C)C)nc(OCC5(CN6CCC(F)CC6)CC5)nc4c3F)c12` [Example 21], the EC50 lay in the range of 0.1 to 1 µM.
`C#Cc1c(F)ccc2cc(O)cc(-c3ncc4c(N5CC6CCC(C5)N6C(=O)C5(C(F)(F)F)CC5)nc(OCC5(CN6CCC(F)CC6)CC5)nc4c3F)c12` [Example 22] had an EC50 of over 1 µM.

A further assay deals with T1, KRAS(G12V)/SOS1 (Homo sapiens, UniProt P01116, G12V).
T1 construct: purchased Cisbio 63ADK000CB18PEH
T1 sequence (P01116 1-188 isoform P01116-2 G12V): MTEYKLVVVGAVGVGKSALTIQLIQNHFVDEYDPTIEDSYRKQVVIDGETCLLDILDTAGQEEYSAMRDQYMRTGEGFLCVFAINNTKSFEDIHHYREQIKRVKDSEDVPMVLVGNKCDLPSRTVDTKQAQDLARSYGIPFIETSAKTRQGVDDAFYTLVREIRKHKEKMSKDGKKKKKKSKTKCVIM
As to the kind of experiment: KRAS(G12V)/SOS1 homogeneous time-resolved fluorescence (HTRF) assay. As to conditions: absence of GTP; 4° C., 3 hours; read-out: HTRF of KRASG12V-SOS1. The class given is binding. How it is done:
Binding of test compounds to KRAS(G12V) target protein, which in turn blocks KRAS(G12V) interaction with the SOS1 protein, was measured in the absences of GTP by homogeneous time-resolved fluorescence using the KRAS-G12V/SOS1 Binding Assay Kit (Cisbio, 63ADK000CB18PEH), following the manufacturer's instructions, except as noted. 3-fold serial dilutions of each test compound were prepared ranging from 20 µM to 1.02 nM. The test compound was mixed and incubated with reaction components, incubated in a sealed plate at 4° C. for 3 hours and fluorescence was measured using a PerkinElmer Envision plate reader. The KRAS(G12V)-SOS1 IC50 values (the concentration of 50% of the maximal inhibition) were calculated using GraphPad Prism 8.0 software.
On the technique in general: In TR-FRET formats the signal depends on donor and acceptor labels being close together.
For the compound `C#Cc1c(F)ccc2cc(O)cc(-c3ncc4c(N5CC6CCC(C5)N6C(=O)CC#N)nc(OCC5(CN6CCC(F)CC6)CC5)nc4c3F)c12` [Example 2], the IC50 is under 0.1 µM.
Still for that read-out and setting: under `C#Cc1c(F)ccc2cc(O)cc(-c3ncc4c(N5CC6CCC(C5)N6C(=O)CCC#N)nc(OCC5(CN6CCC(F)CC6)CC5)nc4c3F)c12` [Example 3] stands under 0.1 µM; under `C#Cc1c(F)ccc2cc(O)cc(-c3ncc4c(N5CC6CCC(C5)N6C(=O)CC(C)(C)C)nc(OCC5(CN6CCC(F)CC6)CC5)nc4c3F)c12` [Example 5], 0.1 to 1 µM; under `C#Cc1c(F)ccc2cc(O)cc(-c3ncc4c(N5CC6CCC(C5)N6C(=O)NC(C)(C)C)nc(OCC5(CN6CCC(F)CC6)CC5)nc4c3F)c12` [Example 6], under 0.1 µM.
Consider `C#Cc1c(F)ccc2cc(O)cc(-c3ncc4c(N5CC6CCC(C5)N6C(=O)NC(C)C)nc(OCC5(CN6CCC(F)CC6)CC5)nc4c3F)c12` [Example 7], for which the IC50 was under 0.1 µM.
Turning to `C#Cc1c(F)ccc2cc(O)cc(-c3ncc4c(N5CC6CCC(C5)N6C(=O)N(C)C)nc(OCC5(CN6CCC(F)CC6)CC5)nc4c3F)c12` [Example 8], the IC50 was under 0.1 µM.
Take `C#Cc1c(F)ccc2cc(O)cc(-c3ncc4c(N5CC6CCC(C5)N6C(=O)NC5CCOC5)nc(OCC5(CN6CCC(F)CC6)CC5)nc4c3F)c12` (stereo not drawn) [Example 9]: the IC50 is under 0.1 µM.
On to `C#Cc1c(F)ccc2cc(O)cc(-c3ncc4c(N5CC6CCC(C5)N6C(=O)Nc5ccn[nH]5)nc(OCC5(CN6CCC(F)CC6)CC5)nc4c3F)c12` [Example 10], for which the IC50 is under 0.1 µM.
Turning to `C#Cc1c(F)ccc2cc(O)cc(-c3ncc4c(N5CC6CCC(C5)N6C(=O)OCC)nc(OCC5(CN6CCC(F)CC6)CC5)nc4c3F)c12` [Example 11], the IC50 fell in the range of 0.1 to 1 µM.
The same measure, in the same setting: as for `C#Cc1c(F)ccc2cc(O)cc(-c3ncc4c(N5CC6CCC(C5)N6S(=O)(=O)CC(C)C)nc(OCC5(CN6CCC(F)CC6)CC5)nc4c3F)c12` [Example 14], the figure is 0.1 to 1 µM.
In the case of `C#Cc1c(F)ccc2cc(O)cc(-c3ncc4c(N5CC6CCC(C5)N6C(=O)C(O)O)nc(OCC5(CN6CCC(F)CC6)CC5)nc4c3F)c12` [Example 15], the IC50 fell in the range of 0.1 to 1 µM.
As to `C#Cc1c(F)ccc2cc(O)cc(-c3ncc4c(N5CC6CCC(C5)N6C(=O)OCC(C)C)nc(OCC5(CN6CCC(F)CC6)CC5)nc4c3F)c12` [Example 16], the IC50 is 0.1 to 1 µM.
Consider `C#Cc1c(F)ccc2cc(O)cc(-c3ncc4c(N5CC6CCC(C5)N6C(=O)NC(=O)C(C)(C)C)nc(OCC5(CN6CCC(F)CC6)CC5)nc4c3F)c12` [Example 17], for which the IC50 is 0.1 to 1 µM.
On to `C#Cc1c(F)ccc2cc(O)cc(-c3ncc4c(N5CC6CCC(C5)N6C(=O)N5CCC5)nc(OCC5(CN6CCC(F)CC6)CC5)nc4c3F)c12` [Example 18], for which the IC50 was 0.1 to 1 µM.
Regarding `C#Cc1c(F)ccc2cc(O)cc(-c3nc(OC)c4c(N5CC6CCC(C5)N6C(=O)NC(C)(C)C)nc(OCC5(CN6CCC(F)CC6)CC5)nc4c3F)c12` [Example 21], the IC50 is under 0.1 µM.
Consider `C#Cc1c(F)ccc2cc(O)cc(-c3ncc4c(N5CC6CCC(C5)N6C(=O)C5(C(F)(F)F)CC5)nc(OCC5(CN6CCC(F)CC6)CC5)nc4c3F)c12` [Example 22], for which the IC50 lay within 0.1 to 1 µM.

In the next assay the test system is SW620 cells. As to the kind of experiment: Cancer cell line proliferation (CellTiter-Glo), SW620. Format: cell-based. As to conditions: Homo sapiens, SW-620, SW620 colorectal adenocarcinoma, homozygous G12V, 72 hr. How it is done: Cell lines were cultured essentially according to ATCC recommendations. SW620 and NCIH727 cells were plated in 384-well tissue culture plates at 1,000 cells/well and incubated at 37° C./5% CO2 for 72 hr in 40 μl of media. […] Each cell line was then treated with test compounds at various concentrations with a final concentration of 0.5% DMSO/well, and then incubated at 37° C./5% CO2 for 72 hr. 40 μl of CellTiter-Glo® Reagent (Promega Corporation, Madison, WI) was added to each well and processed according manufacturer's protocol. Results were analyzed and IC50 values were calculated in GraphPad 8.0 software.
In turn, `C#Cc1c(F)ccc2cc(O)cc(-c3ncc4c(N5CC6CCC(C5)N6C(=O)CC#N)nc(OCC5(CN6CCC(F)CC6)CC5)nc4c3F)c12` [Example 2] returned an EC50 of 0.1 to 1 µM.
For `C#Cc1c(F)ccc2cc(O)cc(-c3ncc4c(N5CC6CCC(C5)N6C(=O)CCC#N)nc(OCC5(CN6CCC(F)CC6)CC5)nc4c3F)c12` [Example 3], the concentration for a half-maximal effect (EC50) lay in the range of 0.1 to 1 µM.
Compound `C#Cc1c(F)ccc2cc(O)cc(-c3ncc4c(N5CC6CCC(C5)N6C(=O)CC(C)(C)C)nc(OCC5(CN6CCC(F)CC6)CC5)nc4c3F)c12` [Example 5] yielded an EC50 of over 1 µM.
Regarding `C#Cc1c(F)ccc2cc(O)cc(-c3ncc4c(N5CC6CCC(C5)N6C(=O)NC(C)(C)C)nc(OCC5(CN6CCC(F)CC6)CC5)nc4c3F)c12` [Example 6], the EC50 was in the range of 0.1 to 1 µM.
Same read-out and setting: under `C#Cc1c(F)ccc2cc(O)cc(-c3ncc4c(N5CC6CCC(C5)N6C(=O)NC(C)C)nc(OCC5(CN6CCC(F)CC6)CC5)nc4c3F)c12` [Example 7] stands over 1 µM; under `C#Cc1c(F)ccc2cc(O)cc(-c3ncc4c(N5CC6CCC(C5)N6C(=O)N(C)C)nc(OCC5(CN6CCC(F)CC6)CC5)nc4c3F)c12` [Example 8], over 1 µM; under `C#Cc1c(F)ccc2cc(O)cc(-c3ncc4c(N5CC6CCC(C5)N6C(=O)OCC)nc(OCC5(CN6CCC(F)CC6)CC5)nc4c3F)c12` [Example 11], 0.1 to 1 µM.
Take `C#Cc1c(F)ccc2cc(O)cc(-c3ncc4c(N5CC6CCC(C5)N6S(=O)(=O)CC(C)C)nc(OCC5(CN6CCC(F)CC6)CC5)nc4c3F)c12` [Example 14]: the EC50 was in the range of 0.1 to 1 µM.
On the same count and under the same terms, as for `C#Cc1c(F)ccc2cc(O)cc(-c3ncc4c(N5CC6CCC(C5)N6C(=O)OCC(C)C)nc(OCC5(CN6CCC(F)CC6)CC5)nc4c3F)c12` [Example 16], the figure is over 1 µM; as for `C#Cc1c(F)ccc2cc(O)cc(-c3ncc4c(N5CC6CCC(C5)N6C(=O)NC(=O)C(C)(C)C)nc(OCC5(CN6CCC(F)CC6)CC5)nc4c3F)c12` [Example 17], over 1 µM; as for `C#Cc1c(F)ccc2cc(O)cc(-c3ncc4c(N5CC6CCC(C5)N6C(=O)N5CCC5)nc(OCC5(CN6CCC(F)CC6)CC5)nc4c3F)c12` [Example 18], over 1 µM.
For `C#Cc1c(F)ccc2cc(O)cc(-c3nc(OC)c4c(N5CC6CCC(C5)N6C(=O)NC(C)(C)C)nc(OCC5(CN6CCC(F)CC6)CC5)nc4c3F)c12` [Example 21], the EC50 was in the range of 0.1 to 1 µM.
With `C#Cc1c(F)ccc2cc(O)cc(-c3ncc4c(N5CC6CCC(C5)N6C(=O)C5(C(F)(F)F)CC5)nc(OCC5(CN6CCC(F)CC6)CC5)nc4c3F)c12` [Example 22], the concentration for a half-maximal effect (EC50) was over 1 µM.
